Results as given in US20240173440A1, “HIGH PURITY COPPER RADIOPHARMACEUTICAL COMPOSITIONS AND DIAGNOSTIC AND THERAPEUTIC USES THEREOF” (Nuclidium AG, priority 2022, published 2024).

Biological target: PSMA (Homo sapiens (Human), UniProt Q04609)
Test: Competitive binding assay (IC50) on LNCaP cells with radioligand [125I-BA]KuE
Conditions: 1 hour on ice, radioligand [^125I-BA]KuE 0.2 nM, mean ± SD
Procedure: In the case of the PSMA constructs, the radioiodinated ((S)-1-carboxy-5-(4-(-^125I-iodo-benzamido)pentyl)carbamoyl)-L-glutamic acid ([^125I-BA]KuE) was used as reference radioligand. The assay was performed on LNCaP cells seeded in 24-well plates (1.5×10^5 cells/well). The cells were incubated with increased concentrations of each ^natCu-complexed conjugates (ranging from 0.1 up to 100 nM) in the presence of 0.2 nM [^125I-BA]KuE. After 1 hour incubation on ice, the unbound (free) [^125I-BA]KuE was collected by removing the medium and the cells were detached with NaOH 1 M for counting (bound radioligand). Non-specific binding was defined as the amount of binding activity in the presence of the blocking agent 2-(phosphonomethyl)pentanedioic acid (2-PMPA) in high excess (10 μM).
Quantification of the free and bound radioligand was performed in a gamma-counter. The data were analyzed by GraphPad Prism 9 Software and the IC50 values were determined using the “log(inhibitor) vs response” equation based on the specific binding=total−non-specific binding.
Table 18. IC50 values were determined by competitive assays. […] The results are expressed as means standard deviation (SD) from a minimum of two separate experiments, each in triplicates.

Chain of PSMA (Q04609 whole entry): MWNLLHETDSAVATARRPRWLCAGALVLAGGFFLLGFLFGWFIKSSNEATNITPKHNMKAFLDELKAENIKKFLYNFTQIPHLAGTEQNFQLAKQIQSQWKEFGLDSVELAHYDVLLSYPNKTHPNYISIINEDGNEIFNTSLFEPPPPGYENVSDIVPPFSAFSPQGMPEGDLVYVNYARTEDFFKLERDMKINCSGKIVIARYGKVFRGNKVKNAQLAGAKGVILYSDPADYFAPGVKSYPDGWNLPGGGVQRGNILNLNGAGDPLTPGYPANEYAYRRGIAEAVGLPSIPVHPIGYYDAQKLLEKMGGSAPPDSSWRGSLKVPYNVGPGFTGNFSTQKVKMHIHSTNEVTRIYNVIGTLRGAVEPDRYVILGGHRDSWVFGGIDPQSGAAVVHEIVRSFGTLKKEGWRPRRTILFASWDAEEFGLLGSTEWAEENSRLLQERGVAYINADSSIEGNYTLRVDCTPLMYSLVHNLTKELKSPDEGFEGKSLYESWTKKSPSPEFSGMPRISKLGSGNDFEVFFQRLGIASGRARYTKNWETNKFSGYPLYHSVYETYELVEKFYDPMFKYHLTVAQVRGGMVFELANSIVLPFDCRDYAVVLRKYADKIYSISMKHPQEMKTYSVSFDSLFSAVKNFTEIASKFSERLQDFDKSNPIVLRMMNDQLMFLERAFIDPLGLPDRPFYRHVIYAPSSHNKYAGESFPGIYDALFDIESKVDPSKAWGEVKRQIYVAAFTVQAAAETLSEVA

SMILES	IC50
O=C([O-])CN1CCN(CC(=O)[O-])CCN(C(CCC(=O)N[C@H](Cc2ccc(O)c(I)c2)C(=O)N[C@H](Cc2ccccc2)C(=O)N[C@H](CCCCNC(=O)CCCCCCC(=O)NCCCC[C@H](NC(=O)N[C@@H](CCC(=O)O)C(=O)O)C(=O)O)C(=O)O)C(=O)O)CCN(CC(=O)O)CC1.[Cu+2] (some centres unmarked) [^natCu-DOTAGA-PSMA-I&T, reference compound]	11.2 ± 2.3 nM
O=C([O-])CN1CCN(CC(=O)[O-])CCN([C@H](CCC(=O)N[C@H](Cc2ccc(O)c(I)c2)C(=O)N[C@H](Cc2ccccc2)C(=O)N[C@H](CCCCNC(=O)CCCCCCC(=O)NCCCC[C@H](NC(=O)N[C@@H](CCC(=O)O)C(=O)O)C(=O)O)C(=O)O)C(=O)O)CC1.[Cu+2] [^natCu-NODAGA-PSMA-I&T]	9.3 ± 1.8 nM
